These results are taken from US9969726B2, “Metabotropic glutamate receptor negative allosteric modulators (NAMS) and uses thereof” (Sanford-Burnham Medical Research Institute, priority 2014, dated 2018).

Like-named read-outs stand apart in the source and are kept apart here. Bounds are passed on as bounds.

The nature of data set [1]: Plasma stability in vitro assay. The class given is in vitro ADME. As to conditions: rat plasma, 100 μM, 37.5° C. The protocol:
A 20 μL aliquot of a 10 mM solution in DMSO of the test compound was added to 2.0 mL of heparinized rat plasma (Lampire, P1-150N) to obtain a 100 μM final solution. The mixture was incubated for 1 h at 37.5° C. Aliquots of 100 μL were taken at 15 min intervals and diluted with 100 μL of MeOH/ACN. After mixing, the sample was centrifuged at approximately 13000 rpm for 12 min. The supernatant was filtered and transferred into an autosampler vial and the amount of test compound was quantified using the Shimadzu LCMS-2010EV system. The change of the AUC of the parent compound in function of time was used as a measure of plasma stability.

The nature of data set [2]: Microsomal stability in vitro assay. The class given is in vitro ADME. As to conditions: rat liver microsomes 1 mg/mL, 4 μM compound, 2 mM NADPH. As to the method:
Pooled rat liver microsomes (BD Biosciences, #452701) were preincubated with test compounds at 37.5° C. for 5 min in the absence of NADPH. The reaction was initiated by addition of NADPH and incubated under the same conditions. The final incubation concentrations were 4 μM test compound, 2 mM NADPH, and 1 mg/mL (total protein) liver microsomes in phosphate-buffered saline (PBS) at pH 7.4. One aliquot (100 μL) of the incubation mixture was withdrawn at 15 min time points and combined immediately with 100 μL of ACN/MeOH. After mixing, the sample was centrifuged at approximately 13000 rpm for 12 min. The supernatant was filtered and transferred into an autosampler vial and the amount of test compound was quantified using a Shimadzu LCMS 2010EV mass spectrometer. The change of the AUC (area under the curve) of the parent compound as a function of time was used as a measure of microsomal stability. Test compounds were run in duplicate with a positive control.
On the technique in general: Microsomes from liver hold many membrane-bound enzymes, among them those of drug oxidation.

Data set [3] is described as follows: PK: brain and plasma levels collected after the FST. As to conditions: Wistar. The class given is in vivo, rat. The protocol:
After the habituation swim and 24 hours prior to the test swim, rats were administered one of three doses of a mGlu2/3 NAM, with doses and pretreatment time based on maximal brain penetration as determined by PK studies for each compound. Blood and brain tissue were collected immediately after the FST and the PK properties of each compound were analyzed together with FST behavior. The modified forced swim test was carried out as described previously in Cryan et al., 2003. Briefly, rats were taken from the vivarium and immediately placed individually for 15 min in Pyrex cylinders (21×46 cm; Fisher Scientific, Tustin, Calif.), which were filled with water to a depth of 30 cm. The testing room was bright, and two bright (60-watt) lamps provided extra illumination above the cylinders. The rats were removed 15 min later, dried, and placed in their home cage. Twenty-four hours after their first exposure, the animals were again placed in the swim apparatus for 5 min, and behaviors were monitored from above by video camera for subsequent analysis. The rater of the behavioral patterns was blind with respect to the experimental conditions being scored. A time sampling technique was employed whereby the predominant behavior in each 5-sec period of the 300-sec test was recorded. Climbing behavior consisted of upward-directed movements of the forepaws along the side of the swim chamber. Swimming behavior was defined as movement (usually horizontal) throughout the swim chamber, which also included crossing into another quadrant. Immobility was assigned when no additional activity was observed other than that required to keep the rat's head above water.

The next data set concerns the target rat mGlu3 receptor (Rattus norvegicus (Rat), UniProt P31422). Briefly: mGlu3 in vitro GIRK thallium flux assay. The class given is cell-based. Particulars: NAM; 2.5 min compound incubation; EC80 glutamate; HEK-293 GIRK cells. The method in brief: (§1)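 Cells expressing rat mGlu2 or mGlu3 with GIRK, plated overnight at 37 °C. Test compounds (0.3% DMSO, 10-point 1:3 series) preincubated 2.5 or 60 min, then thallium buffer plus EC80 glutamate added. Fluorescence slope 5–15 s after addition, normalised to vehicle and maximal agonist, fitted by four-parameter logistic.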

In the next data set the target is rat mGlu2 receptor (Rattus norvegicus (Rat), UniProt P31421). Description: mGlu2 in vitro GIRK thallium flux assay. The class given is cell-based. As to conditions: NAM, EC80 glutamate, HEK-293 GIRK cells. The method in brief: as §1
Chain of rat mGlu2 receptor (P31421 19-872): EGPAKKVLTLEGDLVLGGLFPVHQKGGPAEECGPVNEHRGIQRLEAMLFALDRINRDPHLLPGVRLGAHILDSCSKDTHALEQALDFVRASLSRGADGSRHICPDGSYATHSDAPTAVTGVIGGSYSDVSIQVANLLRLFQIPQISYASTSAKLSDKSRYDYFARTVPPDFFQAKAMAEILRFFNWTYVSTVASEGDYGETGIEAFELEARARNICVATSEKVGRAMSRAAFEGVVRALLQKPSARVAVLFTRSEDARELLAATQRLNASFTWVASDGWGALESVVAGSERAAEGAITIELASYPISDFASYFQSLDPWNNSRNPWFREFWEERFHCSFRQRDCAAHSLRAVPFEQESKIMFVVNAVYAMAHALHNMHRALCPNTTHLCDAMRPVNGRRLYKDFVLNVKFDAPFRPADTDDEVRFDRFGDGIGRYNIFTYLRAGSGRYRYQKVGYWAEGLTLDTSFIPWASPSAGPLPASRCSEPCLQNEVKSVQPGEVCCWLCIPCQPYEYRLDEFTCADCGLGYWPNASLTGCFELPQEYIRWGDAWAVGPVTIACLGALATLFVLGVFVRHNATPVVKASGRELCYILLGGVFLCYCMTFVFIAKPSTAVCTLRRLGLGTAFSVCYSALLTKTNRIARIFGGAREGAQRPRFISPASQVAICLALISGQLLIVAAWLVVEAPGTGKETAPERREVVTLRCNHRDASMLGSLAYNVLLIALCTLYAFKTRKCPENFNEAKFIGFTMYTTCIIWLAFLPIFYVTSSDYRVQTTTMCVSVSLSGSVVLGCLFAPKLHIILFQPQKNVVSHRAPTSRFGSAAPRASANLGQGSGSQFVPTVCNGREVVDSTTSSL
Another data set has as its system Male Wistar rats. Description: Forced Swim Test (FST). The class given is in vivo. Particulars: rat; immobility and swimming; FIG. 1. As to the method: Male Wistar rats (Charles River, Hollister, Calif.), weighing 175-225 g (Charles River, Portage, Ind.) used for the forced swim test study were housed in pairs with food and water available ad libitum, except during testing, in a temperature and humidity controlled vivarium (21° C.). Rats were maintained on a 12-hour reverse light-dark cycle with lights on at 6 pm. All experimental procedures occurred during the dark cycle, were approved by the Institutional Animal Care and Use Committee of the Scripps Research Institute, and were in accordance with the Association for the Assessment and Accreditation of Laboratory Animal Care (AAALAC) guidelines. […]
After the habituation swim and 24 hours prior to the test swim, rats were administered one of three doses of a mGlu2/3 NAM, with doses and pretreatment time based on maximal brain penetration as determined by PK studies for each compound. Blood and brain tissue were collected immediately after the FST and the PK properties of each compound were analyzed together with FST behavior. […] Twenty-four hours after their first exposure, the animals were again placed in the swim apparatus for 5 min, and behaviors were monitored from above by video camera for subsequent analysis. The rater of the behavioral patterns was blind with respect to the experimental conditions being scored. […]

Setting [4] is: rat brain tissue, read-out: Brain.
Setting [5] is: 2.5 min compound incubation, read-out: mGlu2 EC50 (μM) (2.5 min).
Setting [6] is: mGlu2 EC50 (μM) (60 min), 60 min compound incubation.
The mark [7] stands for this setting: read-out: mGlu2 EC50 (μM) (60 min), 60 min compound incubation.

Chain of rat mGlu3 receptor (P31422 23-879): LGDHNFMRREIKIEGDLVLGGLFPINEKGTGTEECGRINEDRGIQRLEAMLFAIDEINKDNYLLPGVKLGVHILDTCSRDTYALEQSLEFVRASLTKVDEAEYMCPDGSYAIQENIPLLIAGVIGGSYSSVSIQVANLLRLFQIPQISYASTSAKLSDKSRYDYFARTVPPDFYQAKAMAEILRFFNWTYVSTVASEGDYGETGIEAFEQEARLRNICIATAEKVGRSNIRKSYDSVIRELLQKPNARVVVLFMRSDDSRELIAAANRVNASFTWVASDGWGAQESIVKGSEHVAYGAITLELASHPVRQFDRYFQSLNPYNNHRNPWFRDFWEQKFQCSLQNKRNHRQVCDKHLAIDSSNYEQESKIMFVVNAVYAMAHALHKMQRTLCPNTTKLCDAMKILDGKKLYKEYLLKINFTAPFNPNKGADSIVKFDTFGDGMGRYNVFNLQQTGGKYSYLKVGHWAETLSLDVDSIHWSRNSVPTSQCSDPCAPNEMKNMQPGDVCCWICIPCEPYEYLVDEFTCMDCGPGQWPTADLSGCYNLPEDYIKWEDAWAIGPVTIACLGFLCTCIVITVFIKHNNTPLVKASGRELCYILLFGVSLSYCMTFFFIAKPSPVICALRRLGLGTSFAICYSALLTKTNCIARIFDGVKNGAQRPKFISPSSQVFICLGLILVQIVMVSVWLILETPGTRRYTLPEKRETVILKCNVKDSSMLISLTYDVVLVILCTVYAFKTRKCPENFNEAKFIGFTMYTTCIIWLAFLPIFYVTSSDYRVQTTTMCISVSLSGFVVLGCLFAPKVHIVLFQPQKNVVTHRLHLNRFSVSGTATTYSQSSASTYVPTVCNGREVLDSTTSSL

A word on the EC50: it is the midpoint of the concentration-response curve. Consider `O=C(O)c1cc(F)cc(-c2cccc(-c3nsc(-c4ccoc4)n3)c2)c1` [Example 43, 5-Fluoro-3′-(5-(furan-3-yl)-1,2,4-thiadiazol-3-yl)biphenyl-3-carboxylic Acid], for which the “Plasma Stability, Percent Remaining @ 1 hour” value in data set [1] came to 95%. The “Microsomal Stability, Percent Remaining @ 1 hour” value in data set [2] is recorded as 66%. The concentration at 24 h was found to be 210 ± 40 nM in data set [3] (setting [4]) and 4690 ± 780 nM in data set [3] (rat plasma, read-out: Plasma). For the same compound, the EC50 on rat mGlu3 receptor stood at 3.43 µM; on rat mGlu2 receptor (setting [5]), 0.17 µM; at rat mGlu2 receptor (setting [6]), 0.11 µM.
Regarding `O=C(O)c1cccc(-c2cccc(-c3cc(-c4ccccc4)on3)c2)c1` [Example 49, 3′-(5-Phenylisoxazol-3-yl)-[1,1′-biphenyl]-3-carboxylic Acid], the concentration at 24 h was determined as 500 ± 50 nM in data set [3] (setting [4]) and 19200 ± 2100 nM in data set [3] (rat plasma, read-out: Plasma). Moreover, the results for the EC50 at rat mGlu3 receptor, at rat mGlu2 receptor (setting [5]) and on rat mGlu2 receptor (setting [6]) were over 10 µM, over 10 µM and over 30 µM, respectively.
For `O=C(O)c1cc(-c2cccc(-c3nc(-c4ccc(C(F)(F)F)nc4)cc(C(F)(F)F)n3)c2)ccc1F` [Example 73, 4-Fluoro-3′-(4-(trifluoromethyl)-6-(6-(trifluoromethyl)pyridin-3-yl)pyrimidin-2-yl)biphenyl-3-carboxylic Acid], the concentration at 24 h in data set [3] (setting [4]) was determined as 140 ± 90 nM; in data set [3] (rat plasma, read-out: Plasma) it was 9010 ± 2230 nM. Further, the EC50 at rat mGlu3 receptor stood at 1.18 µM; at rat mGlu2 receptor (setting [5]), 0.82 µM; at rat mGlu2 receptor (setting [7]), 0.17 µM.
As for `COc1ccc(-c2cc(C(F)(F)F)nc(-c3cccc(-c4ccc(F)c(C(=O)O)c4)c3)n2)cc1` [Example 87, 4-Fluoro-3′-(4-(4-methoxyphenyl)-6-(trifluoromethyl)pyrimidin-2-yl)biphenyl-3-carboxylic Acid], in data set [1], the “Plasma Stability, Percent Remaining @ 1 hour” value is 97%. The “Microsomal Stability, Percent Remaining @ 1 hour” value in data set [2] was determined as 92%. Besides, the EC50 on rat mGlu3 receptor came out at 1 µM; at rat mGlu2 receptor (setting [5]), 1.07 µM; at rat mGlu2 receptor (setting [7]), 0.06 µM.
For `O=C(O)c1cc(F)cc(-c2cccc(-c3nc(-c4ccco4)cc(C(F)(F)F)n3)c2)c1` [Example 89, 5-Fluoro-3′-(4-(furan-2-yl)-6-(trifluoromethyl)pyrimidin-2-yl)biphenyl-3-carboxylic Acid] the same measures were 100%, 82%, 2.25 µM, 1.24 µM and 0.14 µM.
With `O=C(O)c1cc(-c2cccc(-c3nc(-c4ccoc4)cc(C(F)(F)F)n3)c2)ccc1F` [Example 94, 4-Fluoro-3′-(4-(furan-3-yl)-6-(trifluoromethyl)pyrimidin-2-yl)biphenyl-3-carboxylic Acid], the concentration at 24 h was 490 ± 60 nM in data set [3] (setting [4]) and 15900 ± 950 nM in data set [3] (rat plasma, read-out: Plasma). Moreover, the results for the EC50 at rat mGlu3 receptor and on rat mGlu2 receptor (setting [7]) were 0.28 µM and 0.14 µM, respectively.
With `O=C(O)c1ccc(F)c(-c2cccc(-c3nc(-c4ccoc4)cc(C(F)(F)F)n3)c2)c1` [Example 114, 6-Fluoro-3′-(4-(furan-3-yl)-6-(trifluoromethyl)pyrimidin-2-yl)biphenyl-3-carboxylic Acid], the “Plasma Stability, Percent Remaining @ 1 hour” value in data set [1] was found to be 93%. Besides, the “Microsomal Stability, Percent Remaining @ 1 hour” value in data set [2] is 66%. The EC50 at rat mGlu3 receptor came out at 1.36 µM; on rat mGlu2 receptor (setting [5]) it was 0.4 µM.
As for `O=C(O)c1cc(-c2cccc(-c3nc(-c4ccsc4)cc(C(F)(F)F)n3)c2)ccc1F` [Example 122, 4-Fluoro-3′-(4-(thiophen-3-yl)-6-(trifluoromethyl)pyrimidin-2-yl)-[1,1′-biphenyl]-3-carboxylic Acid], the “Plasma Stability, Percent Remaining @ 1 hour” value in data set [1] is on record as 83%. In addition, the “Microsomal Stability, Percent Remaining @ 1 hour” value in data set [2] is 83%. Further, the EC50 at rat mGlu3 receptor worked out at 0.53 µM; on rat mGlu2 receptor (setting [7]), 0.07 µM.
For the compound `Cc1cc2c(cc1C(F)(F)F)NC(=O)CC(c1cccc(Sc3ncccn3)c1)=N2` [Example 136, 7-Methyl-4-(3-(pyrimidin-2-ylthio)phenyl)-8-(trifluoromethyl)-1H-benzo[b][1,4]diazepin-2(3H)-one], the “Plasma Stability, Percent Remaining @ 1 hour” value in data set [1] turned out to be 99%. The “Microsomal Stability, Percent Remaining @ 1 hour” value in data set [2] amounted to 90%. Besides, the EC50 came out at 0.81 µM on rat mGlu3 receptor, 0.88 µM on rat mGlu2 receptor (setting [5]) and 0.04 µM on rat mGlu2 receptor (setting [7]).
For `Cc1cc2c(cc1C(F)(F)F)NC(=O)CC(c1cccc(S(=O)(=O)c3ncccn3)c1)=N2` [Example 137, 7-Methyl-4-(3-(pyrimidin-2-ylsulfonyl)phenyl)-8-(trifluoromethyl)-1H-benzo[b][1,4]diazepin-2(3H)-one] the same measures were 66%, 68%, 0.3 µM, 0.45 µM and 0.06 µM.
For `O=C1CC(c2cccc(-c3cccnc3)c2)=Nc2ccc(Br)cc2N1` [Example 179, 8-Bromo-4-(3-(pyridin-3-yl)phenyl)-1,3-dihydro-2H-benzo[b][1,4]diazepin-2-one] the same measures were 100%, 30%, 1.37 µM, 2.74 µM and 0.02 µM.
On to `N#Cc1cc(C2=Nc3ccc(Br)cc3NC(=O)C2)ccn1` [Example 182, 4-(8-Bromo-2-oxo-2,3-dihydro-1H-benzo[b][1,4]diazepin-4-yl)picolinonitrile], for which the concentration at 24 h in data set [3] (setting [4]) was 280 ± 100 nM; in data set [3] (rat plasma, read-out: Plasma) it was 160 ± 30 nM. Further, the EC50 on rat mGlu3 receptor, on rat mGlu2 receptor (setting [5]) and on rat mGlu2 receptor (setting [7]) was 0.04 µM in each case. In the data set on Male Wistar rats, the “antidepressant activity in the Forced Swim Test” value is “decreasing immobility and increasing swimming”.
Consider `N#Cc1cc(C2=Nc3ccc(C(F)(F)F)cc3NC(=O)C2)ccn1` [Example 184, 4-(2-Oxo-8-(trifluoromethyl)-2,3-dihydro-H-benzo[b][1,4]diazepin-4-yl)picolinonitrile], for which the “Plasma Stability, Percent Remaining @ 1 hour” value in data set [1] is reported as 100%. The “Microsomal Stability, Percent Remaining @ 1 hour” value in data set [2] is 97%. The EC50 on rat mGlu3 receptor was found to be 0.41 µM; on rat mGlu2 receptor (setting [5]), 0.49 µM; on rat mGlu2 receptor (setting [7]) it was 0.07 µM.
As for `O=C1CC(c2ccnc(Br)c2)=Nc2ccc(C(F)(F)F)cc2N1` [Example 191, 4-(2-Bromopyridin-4-yl)-8-(trifluoromethyl)-1,3-dihydro-2H-benzo[b][1,4]diazepin-2-one], the concentration at 24 h in data set [3] (setting [4]) worked out at 1430 ± 460 nM; in data set [3] (rat plasma, read-out: Plasma), 280 ± 60 nM. Moreover, the EC50 on rat mGlu3 receptor is 0.18 µM; at rat mGlu2 receptor (setting [5]), 0.25 µM; on rat mGlu2 receptor (setting [7]), 0.08 µM. Moreover, the “antidepressant activity in the Forced Swim Test” value with Male Wistar rats was “decreasing immobility and increasing swimming”.
